What was measured:
Format in all cases: in vivo
[1] = tested on: ECHCG: barnyardgrass (Echinochloa crus-galli); test: Post-emergent Test I herbicidal activity; conditions: post-emergence, 336 h, read-out: Visual Growth Reduction (%) 14 Days After Application, ECHCG; for pest or weed control at 4040 g/ha: 4.04 kg ai/ha; for pest or weed control at 4000 g/ha: 4 kg ai/ha
Method: (§1) Post-emergent Test I Seeds test species were obtained from commercial suppliers and planted into a 13 cm diameter-round pot containing soil-less media mix (metro-mix 360®, Sun Gro Horticulture). Postemergence treatments were planted 8-12 days prior to application and cultured in a greenhouse equipped with supplemental light sources to provide a 16 h photoperiod at 24-29° C. All pots were surface irrigated.
(§2) A weighted amount, determined by the highest rate to be tested, of each compound was dissolved in 1.3 mL acetone-DMSO (97:3, v/v) and diluted with 4.1 mL water-isopropanol-crop oil concentrate (78:20:2, v/v/v) containing 0.02% Triton X-155 to obtain concentrated stock solutions. Additional application rates were obtained by serial dilution of the high rate solution into a solution containing appropriate volume of 97:3 v/v mixture of acetone and DMSO and appropriate volume of an aqueous mixture of water, isopropyl alcohol, crop oil concentrate (78:20:2, v/v/v) containing 0.02% Triton X-155.
(§3) Formulated compounds were applied using a DeVilbiss® compressed air sprayer at 2-4 psi. Following treatment, pots were returned to the greenhouse for the duration of the experiment. All pots were sub-irrigated as need to provide optimum growing conditions. All pots were fertilized one time per week by subirrigating with Peters Peat-Lite Special® fertilizer (20-10-20).
(§4) […] All evaluations were made visually on a scale of 0 to 100 where 0 represents no activity and 100 represents complete plant death. Visual assessments of plant injury were made based on growth reduction, discoloration, leaf deformity and necrosis.

[2] = tested on: IPOHE: ivyleaf morningglory (Ipomoea hederecea); test: Post-emergent Test I herbicidal activity; conditions: post-emergence, 336 h, read-out: Visual Growth Reduction (%) 14 Days After Application, IPOHE; for pest or weed control at 4040 g/ha: 4.04 kg ai/ha; for pest or weed control at 4000 g/ha: 4 kg ai/ha
Method: as §1, §2, §3, §4

[3] = tested on: AVEFA: wild oats (Avena fatua); test: Post-emergent Test I herbicidal activity; conditions: post-emergence, 336 h, read-out: Visual Growth Reduction (%) 14 Days After Application, AVEFA; for pest or weed control at 4040 g/ha: 4.04 kg ai/ha
Method: as §1, §2, §3, §4

[4] = tested on: AMARE: redroot pigwseed (Amaranthus retroflexus); test: Post-emergent Test I herbicidal activity; conditions: post-emergence, read-out: Visual Growth Reduction (%), AMARE; for pest or weed control at 4040 g/ha: 4.04 kg ai/ha; for pest or weed control at 4000 g/ha: 4 kg ai/ha
Method: as §1, §2, §3, §4

[5] = tested on: SETFA: giant foxtail (Setaria faberi); test: Post-emergent Test I herbicidal activity; conditions: post-emergence, 336 h, read-out: Visual Growth Reduction (%) 14 Days After Application, SETFA; for pest or weed control at 4040 g/ha: 4.04 kg ai/ha; for pest or weed control at 4000 g/ha: 4 kg ai/ha
Method: as §1, §2, §3, §4

[6] = tested on: HELAN: sunflower (Helianthus annuus); test: Post-emergent Test I herbicidal activity; conditions: post-emergence, 336 h, read-out: Visual Growth Reduction (%) 14 Days After Application, HELAN; for pest or weed control at 4040 g/ha: 4.04 kg ai/ha; for pest or weed control at 4000 g/ha: 4 kg ai/ha
Method: as §1, §2, §3, §4

[7] = tested on: ECHCG: barnyardgrass (Echinochloa crus-galli); test: Pre-emergent Test I herbicidal activity; conditions: pre-emergence, 336 h, read-out: Visual Growth Reduction (%) 14 Days After Application, ECHCG; for pest or weed control at 4040 g/ha: 4.04 kg ai/ha; for pest or weed control at 4000 g/ha: 4 kg ai/ha
Method: (§5) Pre-emergent Test I Seeds of test species were planted into round plastic pots (5-inch diameter) containing sandy loam soil. After planting, all pots were sub-irrigated 16 h prior to compound application. Compounds were dissolved in a 97:3 v/v (volume/volume) mixture of acetone and dimethyl sulfoxide (DMSO) and diluted to the appropriate concentration in a final application solution containing water, acetone, isopropanol, DMSO and Agri-dex (crop oil concentrate) in a 59:23:15:1.0:1.5 v/v ratio and 0.02% w/v (weight/volume) of Triton X-155 to obtain the spray solution containing the highest application rate. Additional application rates were obtained by serial dilution of the high rate solution with the above application solution. Formulated compound (2.7 mL) was applied pipetted evenly over the soil surface followed by incorporation with water (15 mL). Following treatment, pots were returned to the greenhouse for the duration of the experiment. The greenhouse was programmed for an approximate 15 h photoperiod which was maintained at about 23-29° C. during the day and 22-28° C. during the night. Nutrients and water were added on a regular basis through surface irrigation and supplemental lighting was provided with overhead metal halide 1000-Watt lamps as necessary. Herbicidal effect ratings were obtained 14 days after treatment. All evaluations were made relative to appropriate controls on a scale of 0 to 100 where 0 represents no herbicidal effect and 100 represents plant death or lack of emergence from the soil.

[8] = tested on: IPOHE: ivyleaf morningglory (Ipomoea hederecea); test: Pre-emergent Test I herbicidal activity; conditions: pre-emergence, 336 h, read-out: Visual Growth Reduction (%) 14 Days After Application, IPOHE; for pest or weed control at 4040 g/ha: 4.04 kg ai/ha; for pest or weed control at 4000 g/ha: 4 kg ai/ha
Method: as §5

[9] = tested on: AVEFA: wild oats (Avena fatua); test: Pre-emergent Test I herbicidal activity; conditions: pre-emergence, 336 h, read-out: Visual Growth Reduction (%) 14 Days After Application, AVEFA; for pest or weed control at 4040 g/ha: 4.04 kg ai/ha; for pest or weed control at 4000 g/ha: 4 kg ai/ha
Method: as §5

[10] = tested on: AMARE: redroot pigwseed (Amaranthus retroflexus); test: Pre-emergent Test I herbicidal activity; conditions: pre-emergence, 336 h, read-out: Visual Growth Reduction (%) 14 Days After Application, AMARE; for pest or weed control at 4040 g/ha: 4.04 kg ai/ha; for pest or weed control at 4000 g/ha: 4 kg ai/ha
Method: as §5

[11] = tested on: SETFA: giant foxtail (Setaria faberi); test: Pre-emergent Test I herbicidal activity; conditions: pre-emergence, 336 h, read-out: Visual Growth Reduction (%) 14 Days After Application, SETFA; for pest or weed control at 4040 g/ha: 4.04 kg ai/ha; for pest or weed control at 4000 g/ha: 4 kg ai/ha
Method: as §5

[12] = tested on: HELAN: sunflower (Helianthus annuus); test: Pre-emergent Test I herbicidal activity; conditions: pre-emergence, 336 h, read-out: Visual Growth Reduction (%) 14 Days After Application, HELAN; for pest or weed control at 4040 g/ha: 4.04 kg ai/ha; for pest or weed control at 4000 g/ha: 4 kg ai/ha
Method: as §5

| SMILES | pest or weed control at 4040 g/ha [1] | pest or weed control at 4040 g/ha [2] | pest or weed control at 4040 g/ha [3] | pest or weed control at 4040 g/ha [4] | pest or weed control at 4040 g/ha [5] | pest or weed control at 4040 g/ha [6] | pest or weed control at 4040 g/ha [7] | pest or weed control at 4040 g/ha [8] | pest or weed control at 4040 g/ha [9] | pest or weed control at 4040 g/ha [10] | pest or weed control at 4040 g/ha [11] | pest or weed control at 4040 g/ha [12] | pest or weed control at 4000 g/ha [1] | pest or weed control at 4000 g/ha [2] | pest or weed control at 4000 g/ha [4] | pest or weed control at 4000 g/ha [5] | pest or weed control at 4000 g/ha [6] | pest or weed control at 4000 g/ha [7] | pest or weed control at 4000 g/ha [8] | pest or weed control at 4000 g/ha [9] | further results |
| --- | --- | --- | --- | --- | --- | --- | --- | --- | --- | --- | --- | --- | --- | --- | --- | --- | --- | --- | --- | --- | --- |
| N#Cc1ccc(-c2nc(C(=O)O)c(Cl)c(N)c2F)cc1F [Compound 156] | 95 to 100% | 95 to 100% | 75 to 84% | 95 to 100% | 85 to 94% | 95 to 100% | 95 to 100% | 95 to 100% | 75 to 84% | 95 to 100% | 95 to 100% | 95 to 100% | – | – | – | – | – | – | – | – | – |
| COC(=O)c1nc(-c2ccc(C#N)cc2F)cc(N)c1Cl [Compound 16] | – | – | – | – | – | – | – | – | – | – | – | – | – | – | – | – | – | – | – | – | pest or weed control at 3840 g/ha ([1]; 3.84 kg ai/ha): 45 to 59%; pest or weed control at 3840 g/ha ([2]; 3.84 kg ai/ha): 95 to 100%; pest or weed control at 3840 g/ha ([3]; 3.84 kg ai/ha): 0 to 29%; pest or weed control at 3840 g/ha ([4]; 3.84 kg ai/ha): 95 to 100%; pest or weed control at 3840 g/ha ([5]; 3.84 kg ai/ha): 60 to 74%; pest or weed control at 3840 g/ha ([6]; 3.84 kg ai/ha): 95 to 100%; pest or weed control at 3840 g/ha ([7]; 3.84 kg ai/ha): 30 to 44%; pest or weed control at 3840 g/ha ([8]; 3.84 kg ai/ha): 95 to 100%; pest or weed control at 3840 g/ha ([9]; 3.84 kg ai/ha): 30 to 44%; pest or weed control at 3840 g/ha ([10]; 3.84 kg ai/ha): 95 to 100%; pest or weed control at 3840 g/ha ([11]; 3.84 kg ai/ha): 0 to 29%; pest or weed control at 3840 g/ha ([12]; 3.84 kg ai/ha): 95 to 100% |
| COC(=O)c1nc(-c2ccccc2)c(F)c(N)c1Cl [Compound 181] | – | – | – | – | – | – | – | – | – | – | – | – | – | – | – | – | – | – | – | – | pest or weed control at 1760 g/ha ([1]; 1.76 kg ai/ha): 0 to 29%; pest or weed control at 1760 g/ha ([2]; 1.76 kg ai/ha): 75 to 84%; pest or weed control at 1760 g/ha ([3]; 1.76 kg ai/ha): 0 to 29%; pest or weed control at 1760 g/ha ([4]; 1.76 kg ai/ha): 95 to 100%; pest or weed control at 1760 g/ha ([5]; 1.76 kg ai/ha): 0 to 29%; pest or weed control at 1760 g/ha ([6]; 1.76 kg ai/ha): 95 to 100%; pest or weed control at 1760 g/ha ([8]; 1.76 kg ai/ha): 85 to 94%; pest or weed control at 1760 g/ha ([9]; 1.76 kg ai/ha): 0 to 29%; pest or weed control at 1760 g/ha ([10]; 1.76 kg ai/ha): 95 to 100%; pest or weed control at 1760 g/ha ([11]; 1.76 kg ai/ha): 75 to 84%; pest or weed control at 1760 g/ha ([12]; 1.76 kg ai/ha): 85 to 94% |
| COC(=O)c1nc(-c2ccc(C#N)c(F)c2)c(F)c(N)c1Cl [Compound 135, methyl 4-amino-3-chloro-6-(4-cyano-3-fluorophenyl)-5-fluoropicolinate] | 95 to 100% | 85 to 94% | 60 to 74% | 95 to 100% | 75 to 84% | 95 to 100% | 30 to 44% | 95 to 100% | 30 to 44% | 95 to 100% | 30 to 44% | 95 to 100% | – | – | – | – | – | – | – | – | – |
| COC(=O)c1nc(-c2ccc(Br)cc2)c(F)c(N)c1Cl [Compound 138, Methyl 4-amino-6-(4-bromophenyl)-3-chloro-5-fluoropicolinate] | – | – | – | – | – | – | – | – | – | – | – | – | 95 to 100% | 95 to 100% | 95 to 100% | 95 to 100% | 95 to 100% | 95 to 100% | 95 to 100% | 95 to 100% | pest or weed control at 4000 g/ha ([3]; 4 kg ai/ha): 75 to 84%; pest or weed control at 4000 g/ha [10]: 95 to 100%; pest or weed control at 4000 g/ha [11]: 95 to 100%; pest or weed control at 4000 g/ha [12]: 95 to 100% |
| Nc1c(F)c(-c2ccc(OC(F)F)cc2)nc(C(=O)O)c1Cl [Compound 143] | – | – | – | – | – | – | – | – | – | – | – | – | 95 to 100% | 45 to 59% | 95 to 100% | 95 to 100% | 95 to 100% | 85 to 94% | 85 to 94% | 60 to 74% | pest or weed control at 4000 g/ha [10]: 85 to 94%; pest or weed control at 4000 g/ha [11]: 95 to 100%; pest or weed control at 4000 g/ha [12]: 95 to 100% |

Reference: patent US9113629B2, “4-amino-6-(4-substituted-phenyl)-picolinates and 6-amino-2-(4-substituted-phenyl)-pyrimidine-4-carboxylates and their use as herbicides” (DOW AGROSCIENCES LLC, priority 2013, dated 2015)
